# Earlier results, collected in patent publication US7674824B2, “Stable oxaliplatin formulation” (Fresenius Kabi Oncology Limited, priority 2006, dated 2010).
# Conditions: 0.9% sodium chloride solution
structure (smiles),measurement,value
O=C1[O][Pt]2([NH][C@@H]3CCCC[C@H]3[NH]2)[O]C1=O [oxaliplatin],Stability after reconstitution in chloride-containing solution (in words),rapidly decomposing
